Assay results taken from US20230104936A1, “TRPML MODULATORS” (Casma Therapeutics, Inc., priority 2019, published 2023).

System: TFEB
Assay: TFEB nuclear translocation assay, HeLa wt cells
Type: cell-based
Conditions: 2 hrs compound treatment, Table 1 does not say HeLa wt or TRPML1 KO
Method in brief: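 Read-out is the ratio of TFEB immunofluorescence in the nucleus to that in a ring just outside it, measured by automated imaging. HeLa wt cells received compounds for 2 hrs at 37° C before fixation and staining; AC50 values come from this ratio.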

| Compound | AC50 (Homo sapiens, HeLa, 2 h) | AC50 |
| --- | --- | --- |
| COCC1(C)CCN(c2ccccc2NS(=O)(=O)Cc2cc(C)ccc2F)CC1 [Compound A-648, 1-(2-fluoro-5-methylphenyl)-N-{2-[4-(methoxymethyl)-4-methylpiperidin-1-yl]phenyl}methanesulfonamide] | ≤ 2000 nM |  |
| CCOC(=O)N1CCN(c2ccccc2NS(=O)(=O)c2ccc(S(=O)(=O)N(C)C)cc2)CC1 [Compound A-308, ethyl 4-{2-[4-(dimethylsulfamoyl)benzenesulfonamido]phenyl}piperazine-1-carboxylate] | 2010 to 8000 nM |  |
| Cc1ccc(S(=O)(=O)Nc2ccccc2N2CCC3(CC2)CN(C)c2cc(F)ccc23)cc1 [Compound A-245, N-(2-{6-fluoro-1-methyl-1,2-dihydrospiro[indole-3,4′-piperidin]-1′-yl}phenyl)-4-methylbenzene-1-sulfonamide] | ≤ 2000 nM |  |
| CN(C)S(=N)(=O)c1ccc(S(=O)(=O)Nc2ccccc2N2CCC(COC(F)(F)CF)CC2)cc1 (centres unmarked) [Compound A-877, N,N-dimethyl-4-[(2-{4-[(1,1,2-trifluoroethoxy)methyl]piperidin-1-yl}phenyl)sulfamoyl]benzene-1-sulfonoimidamide] | ≤ 2000 nM |  |
| CC1(C)CC2(CCN(c3ccccc3NS(=O)(=O)c3ccc(S(C)(=O)=O)cc3)CC2)CO1 [Compound A-693, N-(2-{3,3-dimethyl-2-oxa-8-azaspiro[4.5]decan-8-yl}phenyl)-4-methanesulfonylbenzene-1-sulfonamide] | 2010 to 8000 nM |  |
| CC(C)(C)C(=O)N1CCN(c2ccccc2NS(=O)(=O)c2ccc(OC3CC3)cc2)CC1 [Compound A-576, 4-cyclopropoxy-N-{2-[4-(2,2-dimethylpropanoyl)piperazin-1-yl]phenyl}benzene-1-sulfonamide] | ≥ 10000 nM |  |
| CN(C)S(=O)(=O)c1ccc(S(=O)(=O)Nc2ccccc2N2CCC(C(=O)N3CCOCC3)CC2)cc1 [Compound A-761, N1,N1-dimethyl-N4-{2-[4-(morpholine-4-carbonyl)piperidin-1-yl]phenyl}benzene-1,4-disulfonamide] | ≥ 10000 nM |  |
| CN(C)S(=O)(=O)c1ccc(S(=O)(=O)Nc2ccccc2N2CCC(O)(C(C)(C)C)CC2)cc1 [Compound A-471, N1-(2-(4-(tert-butyl)-4-hydroxypiperidin-1-yl)phenyl)-N4,N4-dimethylbenzene-1,4-disulfonamide] | ≤ 2000 nM |  |
| CN(C)S(=O)(=O)c1ccc(S(=O)(=O)Nc2cccc(F)c2N2CCC(N3CCC4(CCOC4)C3)CC2)cc1 (centres unmarked) [Compound A-874, N4-[3-fluoro-2-(4-{2-oxa-7-azaspiro[4.4]nonan-7-yl}piperidin-1-yl)phenyl]-N1,N1-dimethylbenzene-1,4-disulfonamide] | 2010 to 8000 nM |  |
| COC1Cc2ccc(S(=O)(=O)Nc3ccccc3N3CCC4(CC3)COC(C)(C)C4)cc2C1 (centres unmarked) [Compound A-659, N-(2-{3,3-dimethyl-2-oxa-8-azaspiro[4.5]decan-8-yl]phenyl)-2-methoxy-2,3-dihydro-1H-indene-5-sulfonamide] | 2010 to 8000 nM |  |
| Cc1ccc(S(=O)(=O)Nc2ccccc2N2CC=C(c3ccc(Cl)cn3)CC2)cc1 [Compound A-88, N-(2-{5-chloro-1′,2′,3′,6′-tetrahydro-[2,4′-bipyridin]-1′-yl}phenyl)-4-methylbenzene-1-sulfonamide] | 2010 to 8000 nM |  |
| CC(c1cccc(F)c1N1CCC(CN2C[C@@H](C)O[C@H](C)C2)CC1)S(=O)(=O)c1ccc(S(=O)(=O)N(C)C)cc1 (stereo partly drawn) [Compound A-859, 4-{1-[2-(4-{[(2R,6R)-2,6-dimethylmorpholin-4-yl]methyl}piperidin-1-yl)-3-fluorophenyl]ethanesulfonyl}-N,N-dimethylbenzene-1-sulfonamide] | ≤ 2000 nM |  |
| CC(c1cccc(C#N)c1N1CCC(CN2C[C@@H](C)O[C@@H](C)C2)CC1)S(=O)(=O)c1ccc(S(=O)(=O)N(C)C)cc1 (some centres unmarked) [Compound A-842, 4-((1-(3-cyano-2-(4-((2,6-dimethylmorpholino)methyl)piperidin-1-yl)phenyl)ethyl)sulfonyl)-N,N-dimethylbenzenesulfonamide] | ≤ 2000 nM |  |
| CC(c1ccc(S(=O)(=O)Nc2ccccc2N2CCC(CN3C[C@@H](C)O[C@@H](C)C3)CC2)cc1)C1CC1 (stereo partly drawn) [Compound A-779, 4-(1-cyclopropylethyl)-N-[2-(4-{[(2R,6S)-2,6-dimethylmorpholin-4-yl]methyl}piperidin-1-yl)phenyl]benzene-1-sulfonamide] | ≤ 2000 nM |  |
| O=S(=O)(Nc1cc(Cl)ccc1N1CCC(c2ccc(Cl)cc2F)CC1)c1ccc2c(c1)CCC2 [Compound A-313, N-{5-chloro-2-[4-(4-chloro-2-fluorophenyl)piperidin-1-yl]phenyl}-2,3-dihydro-1H-indene-5-sulfonamide] | ≤ 2000 nM |  |
| CC(c1cc(Cl)cnc1N1CCC(CN2CCC(F)(F)CC2)CC1)S(=O)(=O)c1ccc2c(c1)CCC2 (single isomer, unassigned) [Compound A-994, 5-chloro-2-(4-((4,4-difluoropiperidin-1-yl)methyl)piperidin-1-yl)-3-(1-((2,3-dihydro-1H-inden-5-yl)sulfonyl)ethyl)pyridine] |  | ≤ 2000 nM |

| Compound | AC50 (Homo sapiens, HeLa, 2 h) | AC50 |
| --- | --- | --- |
| C[C@@H]1CN(c2nn(S(=O)(=O)c3ccc(S(=O)(=O)N(C)C)cc3)c3ccccc23)C[C@H](C)C1F (stereo partly drawn) [Compound A-969, 4-({3-[(3R,5S)-4-fluoro-3,5-dimethylpiperidin-1-yl]-1H-indazol-1-yl}sulfonyl)-N,N-dimethylbenzene-1-sulfonamide] | ≤ 2000 nM |  |
| CS(=O)(=O)c1ccc(S(=O)(=O)Nc2ccccc2N2CCC(c3ccc(Cl)cc3F)CC2)cc1 [Compound A-98, N-{2-[4-(4-chloro-2-fluorophenyl)piperidin-1-yl]phenyl}-4-methanesulfonylbenzene-1-sulfonamide] | ≤ 2000 nM |  |
| CN1CC2(CCN(c3ccccc3NS(=O)(=O)c3ccc(S(=O)(=O)N(C)C)cc3)CC2)c2ncccc21 [Compound A-271, N1,N1-dimethyl-N4-(2-{1′-methyl-1′,2′-dihydrospiro[piperidine-4,3′-pyrrolo(3,2-b]pyridin]-1-yl}phenyl)benzene-1,4-disulfonamide] | ≤ 2000 nM |  |
| Cc1ccc(S(=O)(=O)Nc2ccccc2N2CCC(O)(c3ccc(F)cn3)CC2)cc1 [Compound A-408, N-{2-[4-(5-fluoropyridin-2-yl)-4-hydroxypiperidin-1-yl]phenyl}-4-methylbenzene-1-sulfonamide] | ≥ 10000 nM |  |
| CN(C)S(=O)(=O)c1ccc(S(=O)(=O)Nc2nnc(N3CCN(c4ccc(Cl)cc4F)CC3)s2)cc1 [Compound A-36, N4-{5-[4-(4-chloro-2-fluorophenyl)piperazin-1-yl]-1,3,4-thiadiazol-2-yl}-N1,N1-dimethylbenzene-1,4-disulfonamide] | ≤ 2000 nM |  |
| CN(C)S(=O)(=O)c1ccc(S(=O)(=O)Nc2ccccc2N2CCC(COCC(F)F)CC2)cc1 [Compound A-730, N4-(2-{4-[(2,2-difluoroethoxy)methyl]piperidin-1-yl}phenyl)-N1,N1-dimethylbenzene-1,4-disulfonamide] | ≤ 2000 nM |  |
| COCC1(C)CCN(c2ccccc2C(C)S(=O)(=O)c2ccc(S(=O)(=O)N(C)C)cc2)CC1 (single isomer, unassigned; enantiomer 1) [Compound A-698, 4-((1-(2-(4-(methoxymethyl)-4-methylpiperidin-1-yl)phenyl)ethyl)sulfonyl)-N,N-dimethylbenzenesulfonamide, enantiomer 1] | ≤ 2000 nM |  |
| O=S(=O)(Nc1ccccc1N1CCC(c2ccc(Cl)cc2F)CC1)c1ccc(C(F)(F)F)c(F)c1 [Compound A-158, N-{2-[4-(4-chloro-2-fluorophenyl)piperidin-1-yl]phenyl}-3-fluoro-4-(trifluoromethyl)benzene-1-sulfonamide] | ≤ 2000 nM |  |
| CN(C)S(=O)(=O)c1ccc(S(=O)(=O)n2ccn(C3CCN(c4ccc(Cl)cc4F)CC3)c2=O)cc1 [Compound A-67, 4-((3-(1-(4-chloro-2-fluorophenyl)piperidin-4-yl)-2-oxo-2,3-dihydro-1H-imidazol-1-yl)sulfonyl)-N,N-dimethylbenzenesulfonamide] | ≥ 10000 nM |  |
| CC(c1cccc(F)c1N1CCCCC1)S(=O)(=O)c1ccc(S2(=O)=NCCC2)cc1 (single isomer, unassigned) [Compound A-991, 1-(4-((1-(3-fluoro-2-(piperidin-1-yl)phenyl)ethyl)sulfonyl)phenyl)-4,5-dihydro-3H-isothiazole 1-oxide] |  | 2010 to 8000 nM |
| O=S(=O)(Cc1ccc(F)c(Cl)c1)Nc1cccc(Cl)c1N1CCOCC1 [Compound A-368, N-[3-chloro-2-(morpholin-4-yl)phenyl]-1-(3-chloro-4-fluorophenyl)methanesulfonamide] | 2010 to 8000 nM |  |
| CN(C)S(=O)(=O)c1ccc(S(=O)(=O)Nc2ccccc2N2CCC(COC(C)(F)F)CC2)cc1 [Compound A-739, N4-(2-{4-[(1,1-difluoroethoxy)methyl]piperidin-1-yl}phenyl)-N1,N1-dimethylbenzene-1,4-disulfonamide] | ≤ 2000 nM |  |
| CC1(C)CC2(CCN(c3ccccc3NS(=O)(=O)C3(c4ccccc4)CC3)CC2)CO1 [Compound A-717, N-(2-{3,3-dimethyl-2-oxa-8-azaspiro[4.5]decan-8-yl}phenyl)-1-phenylcyclopropane-1-sulfonamide] | 2010 to 8000 nM |  |
| C[C@@H]1COC[C@@H](C)N1CC1CN(c2c(F)cccc2NS(=O)(=O)c2ccc(S(=O)(=O)N(C)C)cc2)C1 (stereo in doubt) [Compound A-915, rel-N4-[2-(3-{[(3R,5R)-3,5-dimethylmorpholin-4-yl]methyl}azetidin-1-yl)-3-fluorophenyl]-N1,N1-dimethylbenzene-1,4-disulfonamide] | ≥ 10000 nM |  |
| COCC1(C)CCN(c2ccccc2NS(=O)(=O)c2ccc(C(=O)C(C)C)cc2)CC1 [Compound A-641, N-{2-[4-(methoxymethyl)-4-methylpiperidin-1-yl]phenyl}-4-(2-methylpropanoyl)benzene-1-sulfonamide] | 8010 to 9990 nM |  |
| CC1(C)CC2(CCN(c3ccccc3NS(=O)(=O)c3ccc4c(c3)COC4(C)C)CC2)CO1 [Compound A-700, N-(2-{3,3-dimethyl-2-oxa-8-azaspiro[4.5]decan-8-yl}phenyl)-1,1-dimethyl-1,3-dihydro-2-benzofuran-5-sulfonamide] | 2010 to 8000 nM |  |
